Patent US20120238488A1, “COMPOUNDS AND METHODS FOR TREATING NEOPLASIA” (priority 2009, published 2012)

How the values were obtained:
[1] = system: SF295 (CNS); assay: SRB assay, SF295; assay type: cell-based, human
Protocol: SRB assays were performed according to standard National Cancer Institute Guidelines. Briefly, human tumor cells from different cancer panels were seeded into 96 well plates in 100 μL (plating densities ranging from 5-40,000 cells/well depending on the doubling time of individual cell lines) in serum-containing media for twenty-four hours prior to the addition of the compounds to be assayed. After 24 hours, one plate of each cell line was fixed in situ with trichloroacetic acid (TCA). The fixed slides were used to determine the cell population for each cell line at the time of drug addition (Tz). Each compound to be tested was solubilized in DMSO and the desired concentration was then added to the medium and diluted serially 1:10 to provide a total of five or ten drug concentrations plus control (in a final volume of 200 μL). The starting dose before any dilution was 100 uM for all compounds.
Following drug addition, each culture was incubated for forty-eight hours. The assay was terminated with the addition of cold TCA. The supernatant was discarded, and the plates were washed with tap water and air dried. Sulforhodamine B (SRB) solution was then added to each well. After staining, the bound stain was solubilized and the absorbance was read on an automated plate reader at a wavelength of 515 nm.
Using the absorbance measurements [time zero, (Tz), control growth, (C), and test growth in the presence of drug at the ten concentration levels (Ti)], the percentage growth was calculated at each of the drug concentrations levels. Percentage growth inhibition was calculated as:
[(Ti−Tz)/(C−Tz)]×100 for concentrations for which Ti>/=Tz […]
Three dose response parameters were calculated for each experimental agent. […] The drug concentration resulting in total growth inhibition (TGI) was calculated from Ti=Tz. […]
Values were calculated for each of these three parameters when the level of activity was reached; however, if the effect was not reached or was exceeded, the value for that parameter was expressed as greater or less than the maximum or minimum concentration tested. […]

[2] = system: membrane androgen receptor; assay: Membrane androgen receptor competition assay, DU145 cells; assay type: binding; details: 40 μM compound 30 minutes before 40 μM testosterone-HSA-FITC, FIGS. 3B, 3C
Description: To assess whether compounds of the invention were capable of binding directly to the membrane androgen receptor, a fluorescent-based assay was used to measure the ability of a given compound to preclude binding of a fluorescent mAR ligand (testosterone-HSA-FITC conjugates) to its receptor in LNCaP and DU145 cells (see Kampa, M et al, 2002, Faseb J 16:1429-1431, and PCT/U52007/007913).
The detection of membrane androgen receptors using fluorescent testosterone-serum albumin conjugates was performed as described by Kampa, M et al, 2002, Faseb J 16:1429-1431, with minor modifications. Briefly, LNCaP or DU145 prostate cancer cells were cultured on 0.1% gelatin-coated glass coverslips in RPMI 1640 medium supplemented with 2 mM L-Glutamine, 10% Fetal Bovine Serum and 1% Penicillin/Streptomycin for at least 48 hours until reaching 70% confluency. After a 24 hour serum starvation period, cells were incubated with 40 μM testosterone-HSA-FITC for 1 hour at room temperature. The cells were then washed three times with phosphate buffered saline (PBS) and fixed with 3.7% formaldehyde in PBS for 5 minutes at room temperature. Human serum albumin-FITC was used as a control for background staining. […] Coverslips were mounted on slides by using the Slow Fade/Antifade Reagent (Molecular Probes) and studied under a LEICA DMLB microscope, equipped with the appropriate fluorescence filters and a Leica DC 300F camera. Specimens were analyzed using the Leica FW4000 computer program.
To determine the capacity of a given compound to preclude binding of fluorescent testosterone-HSA conjugates (TAC) to the membrane androgen receptor, starved LNCaP or DU145 cells on coverslips prepared as described above were pre-treated with 40 μM of the indicated compound for 30 minutes prior to the addition of testosterone-HSA-FITC. […] Specimens were prepared and analyzed as described above. Compounds binding to the membrane androgen receptor preclude binding of fluorescent testosterone-HSA conjugates to their target and abolish membrane-specific fluorescence.

[3] = system: DU145 prostate cancer cells; assay: MTT assay, combination with paclitaxel; details: DU145, FIG. 1E
Protocol: Cell proliferation/viability was assessed by the MTT [3-(4,5-dimethylthiazol-2-yl)-2,5-diphenyltetrazolium bromide] assay, which is commercially available (Sigma, St. Louis, Mo.). Cells were cultured in 96-well plates for twenty-four hours (7-10.000 cells/well) and incubated with various concentrations of the compounds of the invention in serum-containing medium (or left untreated) for seventy-two hours. At the end of incubation, the medium was aspirated and MTT dissolved in RPMI 1640 w/o phenol red was added to each well to a final concentration of 0.25 mg/ml. After four hours incubation in the dark (37° C., 5% CO2) the supernatant was discarded. The converted dye (blue formazan crystals) was solubilized by adding 200 μl dimethylsulfoxide to each well. Absorbance was measured at 550 nm with reference at 655 nm using a spectrophotometer with the respective filters. All assays were performed in triplicate.

[4] = system: A549 xenografts (lung carcinoma); assay: A549 xenograft anti-tumor activity; assay type: in vivo, Nod/Scid mice; details: for DT/DC / post mortem analysis on excised tumors: tumor growth inhibition: A549 xenografts, compound 56 20 mgk, paclitaxel 18 mgk; for DT/DC: day 24, intraperitoneal
Protocol: All administrations were intraperitoneal.
At day 20 post inoculation (dpi), mean tumor volume was measured at 117.6 mm^3.
Compound 56 was administered intraperitoneallly using a [(QD×5;2) ×5] scheme. Paclitaxel, used as a positive control, was injected twice weekly for 5 cycles (Tuesday & Friday).

SMILES	CC50 ([1]; Homo sapiens, SF-295, 48 h, read-out: LC50)	GI50 ([1]; Homo sapiens, SF-295, SF295, SRB, 48 h)	TGI ([1]; SF295, SRB, 48 h)	membrane fluorescence of TAC-FITC after pre-treatment (binding to mAR precluded) [2]	enhancement of the cytotoxic action of paclitaxel ([3]; 1 or 2 uM compound 12 added to paclitaxel 20 nM)	weight changes ([4]; A549 xenograft mice, 20 mgk intraperitoneal)	DT/DC [4]	post mortem analysis on excised tumors: tumor growth inhibition [4]	anti-tumor activity in A549 xenografts (FIG. 2B) ([4]; mouse, in vivo)	cytotoxic activity alone ([3]; paclitaxel 20 nM)
C[C@]12CCC(=NOCCN)C=C1CCC1C2CC[C@]2(C)C(=O)CCC12 (stereo partly drawn) [Compound 12, (10R,13S)-3-(2-aminoethoxyimino)-10,13-dimethyl-2,3,7,8,9,10,11,12,13,14,15,16-dodecahydro-1H-cyclopenta[a]phenanthren-17(6H)-one]	9.04 µM	3.26 µM	6.15 µM	devoid of membrane fluorescence	clearly enhances the cytotoxic action					
C[C@]12CCC(=NOC3CCNC3)CC1CCC1C2CC[C@]2(C)C(=O)CCC12 (stereo partly drawn) [Compound 56, (10S,13S)-10,13-dimethyl-3-(pyrrolidin-3-yloxyimino)tetradecahydro-1H-cyclopenta[a]phenanthren-17(2H)-one]				devoid of membrane fluorescence		no significant weight changes	−10.47%	statistical significant tumor growth inhibition	has anti-tumor activities	
CC(=O)O[C@H]1C(=O)[C@@]2(C)[C@H]([C@H](OC(=O)c3ccccc3)[C@]3(O)C[C@H](OC(=O)[C@H](O)[C@@H](NC(=O)c4ccccc4)c4ccccc4)C(C)=C1C3(C)C)[C@]1(OC(C)=O)CO[C@@H]1C[C@@H]2O [Paclitaxel, reference compound]							−46,68%	statistical significant tumor growth inhibition		limited cytotoxic activity
